Measured values reported in patent publication US11419875B2, “Compounds and compositions for treating hematological disorders” (Aurigene Discovery Technologies Limited, priority 2017, dated 2022).

These compounds were tested on MV4-11 cells (assay: MV4-11 CellTiter Glo cell viability/proliferation assay (Example 2)). Conditions: Homo sapiens, 72 hours, CellTiter Glo, read-out: MV4-11 IC50.
Assay type: cell-based
Experimental: The CellTiter Glo Luminescent cell viability assay is a highly sensitive homogenous assay to determine the number of viable cells in culture based on quantitation of ATP levels in metabolically active cells. Addition of CTG reagent results in cell lysis and generation of a luminescent signal proportional to the amount of ATP present. The amount of ATP is proportional to the number of cells present. The luminescence is measured using a multilabel reader capable of measuring luminescence. An increase or decrease in cell numbers results in a concomitant change in luminescene level, indicating the effect of the test material on cellular proliferation.
CellTiter-Glo buffer was thawed and equilibrated to room temperature. Lyophilized CellTiter-Glo substrate was brought to room temperature. CTG reagent is prepared by mixing the CellTiter-Glo buffer (Promega Cat #G7572) into an amber bottle containing CellTiter-Glo substrate to reconstitute the lyophilized enzyme/substrate mixture. Both Buffer and the lyophilized substrate are supplied with the kit.
Add 1% Penicillin Streptomycin and 10% FBS to commercially available liquid IMDM (Iscove's Modified Dulbecco's Medium, Invitrogen Cat #12440046).
1. MV4-11 cells were counted and re-suspended to a density of 0.1×10^6 cells/ml in complete IMDM medium. 95 μL of this cell suspension was added per well of a 96-well plate (black plate with clear bottom) to seed ˜0.1×10^5 cells per well. The plates were incubated at 37° C. under a humidified atmosphere of 5% CO2 for ˜2 hours before compound addition. 2. Test compounds were dissolved in 100% DMSO to generate a 2/6/10/20 mM stock solution. A 200× concentration of the required final concentrations was prepared in DMSO. 10 μL of each concentration (200×) was then diluted in 90 μL of serum-free IMDM to prepare an intermediate concentration of 20× in medium. The DMSO concentration in this step was 10% (Intermediate dilution). 5 μL of each intermediate dilution was then added in triplicates to cells previously seeded in 96-well plate. The final DMSO concentration was 0.5% in the experimental wells. Cells treated with 0.5% DMSO served as a positive control. 100 μL of complete IMDM medium served as media blank for data analysis. 200 μL of 1×PBS was added in all corner wells of the assay plate to avoid evaporation of media in experimental wells. Plates were then incubated for 72 hours in an incubator with 5% CO2 at 37° C. 3. To terminate the assay, 50 μL of CTG reagent was added to each well and the plate was incubated at room temperature for 15 minutes on a shaker. The plate was read using the luminescence mode on a multilabel reader capable of measuring luminescence. The luminescence values were plotted against respective concentrations of the test item using GraphPad Prism to calculate the IC50 value for the test item. Percent Inhibition is Calculated as Follows: […]
Positive control wells contained cells, IMDM medium and 0.5% DMSO. Blank control wells contained IMDM medium alone.

SMILES	IC50
O=C(Nc1cc2sc(N3CCOCC3)nc2nc1N1CCCCC1)c1coc(N2CC[C@H](O)C2)n1	< 50 nM
Cc1cc(-c2nc(C(=O)Nc3cc4sc(N5CCOCC5)nc4nc3C3CC3)co2)ccn1	< 50 nM
O=C(Nc1cc2sc(N3CCOCC3)nc2nc1C1CC1)c1cccc(N2CC[C@H](O)C2)n1	> 500 nM
O=C(Nc1cc2sc(N3CCCCC3)nc2nc1N1CCCCC1)c1cccc(N2CC[C@H](O)C2)n1	> 500 nM
Cc1cc(-c2nc(C(=O)Nc3cc4sc(N5CCOCC5)nc4nc3N3CC[C@H](O)C3)co2)ccn1	< 50 nM
O=C(Nc1cc2sc(N3CCOCC3)nc2nc1N1CCCCC1)c1cccc(N2CC[C@H](O)C2)n1	> 500 nM
N[C@H]1CCN(c2cccc(C(=O)Nc3cc4sc(N5CCOCC5)nc4nc3N3CCCCC3)n2)C1	> 500 nM
Cc1cc(-c2nc(C(=O)Nc3cc4oc(N5CCOCC5)nc4nc3N3CC[C@@H](O)C3)co2)ccn1 [drawing 32]	< 50 nM
O=C(Nc1cc2sc(N3CCOCC3)nc2nc1N1CCC1)c1cccc(N2CC[C@H](O)C2)n1	> 500 nM
O=C(Nc1cc2sc(N3CCCCC3)nc2nc1N1CCCCC1)c1cccc(-c2cn[nH]c2)n1	50 to 500 nM
Cc1cc(-c2nc(C(=O)Nc3cc4sc(N5CCOCC5)nc4nc3N3CC[C@@H](O)C3)co2)ccn1	< 50 nM
O=C(Nc1cc2oc(N3CCCCC3)nc2nc1N1CCCCC1)c1cccc(-c2cn[nH]c2)n1	< 50 nM
N[C@H]1CCN(c2cccc(C(=O)Nc3cc4sc(N5CCCCC5)nc4nc3N3CCCCC3)n2)C1	> 500 nM
O=C(Nc1cc2oc(N3CCOCC3)nc2nc1N1CCCCC1)c1cccc(N2CC[C@H](O)C2)n1	> 500 nM
O=C(Nc1cc2oc(N3CCOCC3)nc2nc1N1CCCCC1)c1cccc(-c2cn[nH]c2)n1	< 50 nM
Cc1cc(-c2nc(C(=O)Nc3cnc4nc(N5CCOCC5)sc4c3)co2)ccn1	< 50 nM
Cc1cc(-c2nc(C(=O)Nc3cc4oc(N5CCOCC5)nc4nc3N3CC[C@H](O)C3)co2)ccn1	< 50 nM

Next, values leading:

IC50	SMILES
< 50 nM	C[C@H](O)Cn1cc(-c2cccc(C(=O)Nc3cc4sc(N5CCOCC5)nc4nc3N3CCCCC3)n2)cn1
< 50 nM	C[C@H](O)Cn1cc(-c2cccc(C(=O)Nc3cc4cn(C)nc4cc3C3CC3)n2)cn1
> 500 nM	Cn1cc2cc(NC(=O)c3cccc(N4CC[C@@H](O)C4)n3)c(N3CCCCC3)cc2n1
50 to 500 nM	Cn1cc2cc(NC(=O)c3cccc(N4CCC(O)C4)n3)c(N3CCCCC3)cc2n1 (stereo not shown)
< 50 nM	C[C@H](O)Cn1cc(-c2cccc(C(=O)Nc3cc4cn(C)nc4cc3N3CCCCC3)n2)cn1
50 to 500 nM	Nc1ccc(-c2cccc(C(=O)Nc3cc4sc(N5CCOCC5)nc4cn3)n2)cn1
50 to 500 nM	Cn1cc2cc(NC(=O)c3cccc(N4CC[C@H](O)C4)n3)c(N3CCCCC3)cc2n1
< 50 nM	Cn1cc(-c2cccc(C(=O)Nc3cc4sc(N5CCCCC5)nc4nc3N3CCCCC3)n2)cn1
< 50 nM	Cc1ccc(C(=O)Nc2cc3cn(C)nc3cc2N2CCCCC2)nc1-c1ccc(N)nc1
< 50 nM	Cc1nn(C)c2cc(N3CCC(CO)CC3)c(NC(=O)c3coc(-c4ccnc(N)c4)n3)cc12
< 50 nM	Nc1ccc(-c2cccc(C(=O)Nc3cc4cn(C5CCCC5)nc4cc3N3CCOCC3)n2)cn1
> 500 nM	Nc1ccc(-c2cccc(C(=O)Nc3cc4oc(N5CCOCC5)nc4nc3C3CC3)n2)cn1
> 500 nM	Nc1ccc(-c2cccc(C(=O)Nc3cnc4nc(N5CCOCC5)sc4c3)n2)cn1
< 50 nM	C[C@H](O)Cn1cc(-c2cccc(C(=O)Nc3cc4sc(N5CCOCC5)nc4nc3C3CC3)n2)cn1
< 50 nM	Cc1ccc(C(=O)Nc2cc3cn(C)nc3cc2N2CCCCC2)nc1-c1cnn(C)c1
< 50 nM	Cc1cc(-c2nc(C(=O)Nc3cc4cn(C)nc4cc3C3CC3)co2)ccn1
< 50 nM	Cn1cc(-c2cccc(C(=O)Nc3cc4sc(N5CCOCC5)nc4nc3N3CCCCC3)n2)cn1

Each compound was assayed on MV4-11 cells (assay: AML xenograft model MV4-11, in vivo tumor growth inhibition). Conditions: 100 mg/kg i.p. once daily, 21 days.
Experimental: ND-2158 at 100 mpk was used as a control.
MV4-11 cells were grown in Iscove's Modified Dulbecco's medium supplemented with 10% FBS and 1% penicillin streptomycin. To establish tumors, 15×10^6 MV4-11 cells were injected subcutaneously in 200 μl of 1:1 HBSS and ECM gel into the right flank of the athymic nude mice. Animals were randomized based on tumor volumes. […] Treatments were initiated when the average tumor volume sizes were 333 mm^3. Tumor volumes were measured three times a week and body weights were monitored daily.

SMILES	tolerability (clinical signs, gross pathological changes)	tumor growth inhibition
NC(=O)[C@@H](O)C[C@H]1CCc2sc3ncnc(OC4CCC(N5CCOCC5)CC4)c3c21 (stereo partly shown) [ND-2158, reference compound]	well tolerated without any treatment related clinical signs and gross pathological changes	68%

Same assay, conditions: all treatment groups, 21 days, FIG. 4

SMILES	body weight
NC(=O)[C@@H](O)C[C@H]1CCc2sc3ncnc(OC4CCC(N5CCOCC5)CC4)c3c21 (stereo partly shown) [ND-2158, reference compound]	No body weight reduction was observed
